Experimental data: PubChem BioAssay (NCI)
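Values below derive from 48-hour exposures of cells grown in 96-well plates, with endpoints linearly interpolated between the two concentrations bracketing the appropriate inhibition level. TGI is the concentration that stops growth completely.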

Legend:
Assay in all cases: NCI anticancer screen, dose series, 48 h
UACC-257 melanoma = tested on: UACC-257 melanoma
CCRF-CEM leukemia = tested on: CCRF-CEM leukemia
MDA-MB-435 = tested on: MDA-MB-435
OVCAR-5 ovarian = tested on: OVCAR-5 ovarian
EKVX NSCLC = tested on: EKVX NSCLC
COLO 205 colon = tested on: COLO 205 colon
DU-145 prostate = tested on: DU-145 prostate
MDA-MB-231 breast = tested on: MDA-MB-231 breast
U251 CNS = tested on: U251 CNS
MDA-N = tested on: MDA-N
SF-268 CNS = tested on: SF-268 CNS
HOP-92 NSCLC = tested on: HOP-92 NSCLC
SN12C renal = tested on: SN12C renal
BT-549 breast = tested on: BT-549 breast
SK-MEL-2 melanoma = tested on: SK-MEL-2 melanoma
MCF7 breast = tested on: MCF7 breast
NCI-H522 lung = tested on: NCI-H522 lung
SF-295 CNS = tested on: SF-295 CNS
HOP-62 NSCLC = tested on: HOP-62 NSCLC
HCT-15 colon = tested on: HCT-15 colon
CAKI-1 renal = tested on: CAKI-1 renal
RPMI-8226 leukemia = tested on: RPMI-8226 leukemia
K-562 leukemia = tested on: K-562 leukemia
SW-620 colon = tested on: SW-620 colon
M14 melanoma = tested on: M14 melanoma
OVCAR-8 ovarian = tested on: OVCAR-8 ovarian
SK-OV-3 ovarian = tested on: SK-OV-3 ovarian
SNB-75 CNS = tested on: SNB-75 CNS
UO-31 renal = tested on: UO-31 renal
MALME-3M melanoma = tested on: MALME-3M melanoma
A498 renal = tested on: A498 renal
NCI-H23 lung = tested on: NCI-H23 lung
ACHN renal = tested on: ACHN renal
HCC-2998 colon = tested on: HCC-2998 colon
OVCAR-4 ovarian = tested on: OVCAR-4 ovarian
NCI-H226 lung = tested on: NCI-H226 lung
SR leukemia = tested on: SR leukemia
IGROV1 ovarian = tested on: IGROV1 ovarian
MOLT-4 leukemia = tested on: MOLT-4 leukemia
OVCAR-3 ovarian = tested on: OVCAR-3 ovarian
UACC-62 melanoma = tested on: UACC-62 melanoma
A549 NSCLC = tested on: A549 NSCLC
PC-3 prostate = tested on: PC-3 prostate
TK-10 renal = tested on: TK-10 renal
786-0 renal = tested on: 786-0 renal
HT29 colon = tested on: HT29 colon
LOX IMVI melanoma = tested on: LOX IMVI melanoma
KM12 colon = tested on: KM12 colon
SF-539 CNS = tested on: SF-539 CNS
SK-MEL-5 melanoma = tested on: SK-MEL-5 melanoma
HCT-116 colon = tested on: HCT-116 colon
T-47D breast = tested on: T-47D breast
NCI/ADR-RES ovarian = tested on: NCI/ADR-RES ovarian
SNB-19 CNS = tested on: SNB-19 CNS
NCI-H460 lung = tested on: NCI-H460 lung
HL-60(TB) leukemia = tested on: HL-60(TB) leukemia
SK-MEL-28 melanoma = tested on: SK-MEL-28 melanoma
RXF 393 renal = tested on: RXF 393 renal
HS 578T breast = tested on: HS 578T breast

COc1ccc2c(c1)C1Oc3ccccc3CC1(O)CO2 (configuration not stated) was tested, and the TGI (UACC-257 melanoma) was over 100 µM, the TGI (CCRF-CEM leukemia) was over 100 µM and the TGI (MDA-MB-435) was over 100 µM. The TGI (OVCAR-5 ovarian) was over 100 µM, the TGI (EKVX NSCLC) was over 100 µM and the TGI (COLO 205 colon) was over 100 µM. The TGI (DU-145 prostate) was over 100 µM, the TGI (MDA-MB-231 breast) was over 100 µM and the TGI (U251 CNS) was over 100 µM. For the same compound, the TGI (MDA-N) was over 100 µM, the TGI (SF-268 CNS) was over 100 µM and the TGI (HOP-92 NSCLC) was over 100 µM. It also gave a TGI (SN12C renal) of over 100 µM, a TGI (BT-549 breast) of over 100 µM and a TGI (SK-MEL-2 melanoma) of over 100 µM. The TGI (MCF7 breast) was over 100 µM, the TGI (NCI-H522 lung) was over 100 µM and the TGI (SF-295 CNS) was over 100 µM. The TGI (HOP-62 NSCLC) was over 100 µM, the TGI (HCT-15 colon) was over 100 µM and the TGI (CAKI-1 renal) was over 100 µM. For the same compound, the TGI (RPMI-8226 leukemia) was over 100 µM, the TGI (K-562 leukemia) was over 100 µM and the TGI (SW-620 colon) was over 100 µM. It also gave a TGI (M14 melanoma) of over 100 µM, a TGI (OVCAR-8 ovarian) of over 100 µM and a TGI (SK-OV-3 ovarian) of over 100 µM. It also gave a TGI (SNB-75 CNS) of over 100 µM, a TGI (UO-31 renal) of over 100 µM and a TGI (MALME-3M melanoma) of over 100 µM. The TGI (A498 renal) was over 100 µM, the TGI (NCI-H23 lung) was over 100 µM and the TGI (ACHN renal) was over 100 µM. It also gave a TGI (HCC-2998 colon) of over 100 µM, a TGI (OVCAR-4 ovarian) of over 100 µM and a TGI (NCI-H226 lung) of over 100 µM. The TGI (SR leukemia) was over 100 µM, the TGI (IGROV1 ovarian) was over 100 µM and the TGI (MOLT-4 leukemia) was over 100 µM. For the same compound, the TGI (OVCAR-3 ovarian) was over 100 µM, the TGI (UACC-62 melanoma) was over 100 µM and the TGI (A549 NSCLC) was over 100 µM. The TGI (PC-3 prostate) was over 100 µM, the TGI (TK-10 renal) was over 100 µM and the TGI (786-0 renal) was over 100 µM. The TGI (HT29 colon) was over 100 µM, the TGI (LOX IMVI melanoma) was over 100 µM and the TGI (KM12 colon) was over 100 µM. It also gave a TGI (SF-539 CNS) of over 100 µM, a TGI (SK-MEL-5 melanoma) of over 100 µM and a TGI (HCT-116 colon) of over 100 µM. For the same compound, the TGI (T-47D breast) was over 100 µM and the TGI (NCI/ADR-RES ovarian) was over 100 µM.

Compound O=C1CSC(c2cccc(Cl)c2)N1c1c(O)c(Cl)cc(Br)c1Cl (configuration not stated) has a TGI (UACC-257 melanoma) of 67.4 µM, a TGI (CCRF-CEM leukemia) of 44.8 µM and a TGI (MDA-MB-435) of 31.9 µM. It also gave a TGI (OVCAR-5 ovarian) of over 100 µM, a TGI (EKVX NSCLC) of over 100 µM and a TGI (COLO 205 colon) of 61.2 µM. The TGI (DU-145 prostate) was over 100 µM, the TGI (MDA-MB-231 breast) was 27.5 µM and the TGI (U251 CNS) was 72.3 µM. For the same compound, the TGI (MDA-N) was 34.1 µM, the TGI (SF-268 CNS) was over 100 µM and the TGI (HOP-92 NSCLC) was 29.9 µM. It also gave a TGI (SN12C renal) of over 100 µM, a TGI (SK-MEL-2 melanoma) of 29 µM and a TGI (MCF7 breast) of 29 µM. It also gave a TGI (SF-295 CNS) of over 100 µM, a TGI (HOP-62 NSCLC) of over 100 µM and a TGI (HCT-15 colon) of 28.3 µM. The TGI (CAKI-1 renal) was over 100 µM, the TGI (RPMI-8226 leukemia) was 39.4 µM and the TGI (K-562 leukemia) was over 100 µM. It also gave a TGI (SW-620 colon) of 32.7 µM, a TGI (SNB-19 CNS) of over 100 µM and a TGI (M14 melanoma) of over 100 µM. For the same compound, the TGI (SK-OV-3 ovarian) was over 100 µM, the TGI (NCI-H460 lung) was over 100 µM and the TGI (SNB-75 CNS) was over 100 µM. It also gave a TGI (UO-31 renal) of 28.9 µM, a TGI (HL-60(TB) leukemia) of 51.8 µM and a TGI (MALME-3M melanoma) of over 100 µM. The TGI (A498 renal) was over 100 µM, the TGI (NCI-H23 lung) was over 100 µM and the TGI (ACHN renal) was 27.9 µM. It also gave a TGI (OVCAR-4 ovarian) of 28.1 µM, a TGI (NCI-H226 lung) of over 100 µM and a TGI (SR leukemia) of 70.6 µM. For the same compound, the TGI (MOLT-4 leukemia) was 57.9 µM, the TGI (OVCAR-3 ovarian) was 33.4 µM and the TGI (UACC-62 melanoma) was 56.9 µM. For the same compound, the TGI (SK-MEL-28 melanoma) was over 100 µM, the TGI (A549 NSCLC) was over 100 µM and the TGI (RXF 393 renal) was 35.7 µM. It also gave a TGI (PC-3 prostate) of over 100 µM, a TGI (TK-10 renal) of over 100 µM and a TGI (786-0 renal) of 71.7 µM. For the same compound, the TGI (HT29 colon) was over 100 µM, the TGI (LOX IMVI melanoma) was 29.8 µM and the TGI (KM12 colon) was over 100 µM. It also gave a TGI (SF-539 CNS) of over 100 µM, a TGI (SK-MEL-5 melanoma) of over 100 µM and a TGI (HCT-116 colon) of 28.8 µM. The TGI (HS 578T breast) was over 100 µM, the TGI (T-47D breast) was 41.7 µM and the TGI (NCI/ADR-RES ovarian) was over 100 µM.
